Source: patent US20240174618A1, “SUBSTITUTED (2-HETEROARYLOXYPHENYL)SULFONATES, SALTS THEREOF AND THEIR USE AS HERBICIDAL AGENTS” (Bayer Aktiengesellschaft, priority 2021, published 2024)

Assays:
Format in all cases: in vivo
[1] = system: Triticum aestivum (TRZAS); experiment: F. Post-emergence effect on useful plants, TRZAS; conditions: useful plant
Protocol: (§1) Seeds of monocotyledonous and dicotyledonous weeds and crop plants were placed in sandy loam in plastic or organic planting pots, covered with soil and cultivated in a greenhouse under controlled growth conditions. 2 to 3 weeks after sowing, the test plants were treated at the one-leaf stage. The compounds of the invention, formulated in the form of wettable powders (WP) or as emulsion concentrates (EC), were then sprayed onto the green parts of the plants as aqueous suspension or emulsion with addition of 0.5% additive at a water application rate of 600 l/ha (converted). After the test plants had been kept in the greenhouse under optimum growth conditions for about 3 weeks, the activity of the preparations was rated visually in comparison to untreated controls.
(§2) For example, • 100% efficacy=plants have died, • 0% action=like untreated control plants.
(§3) Tables F1a to F4 below show the effects of selected compounds of the general formula (I) according to table 1 on various useful plants at an application rate corresponding to 320 g/ha or less, which were obtained by the experimental procedure mentioned above.

Viola tricolor (VIOTR) [2] = experiment: C. Herbicidal pre-emergence efficacy, VIOTR
From the text: (§4) Seeds of monocotyledonous and dicotyledonous weed plants and crop plants were placed in plastic or organic planting pots and covered with soil. The compounds of the invention, formulated in the form of wettable powders (WP) or as emulsion concentrates (EC), were then applied to the surface of the covering soil as aqueous suspension or emulsion with addition of 0.5% additive at a water application rate equivalent to 600 l/ha (converted). After the treatment, the pots were placed in a greenhouse and kept under good growth conditions for the test plants. After about 3 weeks, the efficacy of the preparations was scored visually in comparison with untreated controls as percentages. For example, • 100% efficacy=plants have died, • 0% efficacy=like untreated control plants.
(§5) Tables C1a to C14b below show the effects of selected compounds of the general formula (I) according to table 1 on various harmful plants at an application rate corresponding to 320 g/ha or less, which were obtained by the experimental procedure mentioned above.

Avena fatua (AVEFA) = experiment: C. Herbicidal pre-emergence efficacy, AVEFA; conditions: 320 g/ha, scored after about 3 weeks
From the text: as §4, §5

Oryza sativa (ORYSA) = experiment: D. Pre-emergence effect on useful plants, ORYSA; conditions: useful plant, application rate 80 g/ha
From the text: as §4
(§6) Tables D1a to D5b below show the effects of selected compounds of the general formula (I) according to table 1 on various useful plants at an application rate corresponding to 320 g/ha or less, which were obtained by the experimental procedure mentioned above.

[3] = system: Alopecurus myosuroides (ALOMY); experiment: C. Herbicidal pre-emergence efficacy, ALOMY; conditions: 320 g/ha, scored after about 3 weeks
From the text: as §4, §5

Veronica persica (VERPE) [4] = experiment: E. Herbicidal post-emergence efficacy, VERPE
Protocol: as §1, §2
(§7) Tables E1a to E12b below show the effects of selected compounds of the general formula (I) according to table 1 on various harmful plants at an application rate corresponding to 320 g/ha or less, which were obtained by the experimental procedure mentioned above.

Viola tricolor (VIOTR) [5] = experiment: E. Herbicidal post-emergence efficacy, VIOTR
Protocol: as §1, §2, §7

[6] = system: Matricaria inodora (MATIN); experiment: C. Herbicidal pre-emergence efficacy, MATIN; conditions: 320 g/ha, scored after about 3 weeks
From the text: as §4, §5

Veronica persica (VERPE) [7] = experiment: C. Herbicidal pre-emergence efficacy, VERPE; conditions: scored after about 3 weeks
From the text: as §4, §5

[8] = system: Abutilon theophrasti (ABUTH); experiment: C. Herbicidal pre-emergence efficacy, ABUTH; conditions: scored after about 3 weeks
From the text: as §4, §5

Lolium rigidum (LOLRI) [9] = experiment: E. Herbicidal post-emergence efficacy, LOLRI; conditions: application rate 320 g/ha
Protocol: as §1, §2, §7

Zea mays (ZEAMX) [10] = experiment: F. Post-emergence effect on useful plants, ZEAMX; conditions: useful plant, application rate 80 g/ha
Protocol: as §1, §2, §3

[11] = system: Amaranthus retroflexus (AMARE); experiment: E. Herbicidal post-emergence efficacy, AMARE
Protocol: as §1, §2, §7

[12] = system: Echinochloa crus-galli (ECHCG); experiment: E. Herbicidal post-emergence efficacy, ECHCG
Protocol: as §1, §2, §7

[13] = system: Alopecurus myosuroides (ALOMY); experiment: E. Herbicidal post-emergence efficacy, ALOMY; conditions: application rate 320 g/ha
Protocol: as §1, §2, §7

[14] = system: Polygonum convolvulus (POLCO); experiment: C. Herbicidal pre-emergence efficacy, POLCO; conditions: scored after about 3 weeks
From the text: as §4, §5

Setaria viridis (SETVI) [15] = experiment: E. Herbicidal post-emergence efficacy, SETVI; conditions: application rate 320 g/ha
Protocol: as §1, §2, §7

[16] = system: Polygonum convolvulus (POLCO); experiment: E. Herbicidal post-emergence efficacy, POLCO; conditions: application rate 320 g/ha
Protocol: as §1, §2, §7

Lolium rigidum (LOLRI) [17] = experiment: C. Herbicidal pre-emergence efficacy, LOLRI; conditions: 320 g/ha, scored after about 3 weeks
From the text: as §4, §5

[18] = system: Echinochloa crus-galli (ECHCG); experiment: C. Herbicidal pre-emergence efficacy, ECHCG; conditions: scored after about 3 weeks
From the text: as §4, §5

Glycine max (GLXMA) = experiment: D. Pre-emergence effect on useful plants, GLXMA; conditions: useful plant, application rate 80 g/ha
From the text: as §4, §6

[19] = system: Abutilon theophrasti (ABUTH); experiment: E. Herbicidal post-emergence efficacy, ABUTH
Protocol: as §1, §2, §7

[20] = system: Amaranthus retroflexus (AMARE); experiment: C. Herbicidal pre-emergence efficacy, AMARE; conditions: scored after about 3 weeks
From the text: as §4, §5

Setaria viridis (SETVI) [21] = experiment: C. Herbicidal pre-emergence efficacy, SETVI; conditions: scored after about 3 weeks
From the text: as §4, §5

[22] = system: Pharbitis purpurea (PHBPU); experiment: E. Herbicidal post-emergence efficacy, PHBPU
Protocol: as §1, §2, §7

[23] = system: Digitaria sanguinalis (DIGSA); experiment: C. Herbicidal pre-emergence efficacy, DIGSA; conditions: 320 g/ha, scored after about 3 weeks
From the text: as §4, §5

Zea mays (ZEAMX) [24] = experiment: D. Pre-emergence effect on useful plants, ZEAMX; conditions: useful plant, application rate 80 g/ha
From the text: as §4, §6

[25] = system: Triticum aestivum (TRZAS); experiment: D. Pre-emergence effect on useful plants, TRZAS; conditions: useful plant, application rate 80 g/ha
From the text: as §4, §6

Kochia scoparia (KCHSC) [26] = experiment: E. Herbicidal post-emergence efficacy, KCHSC
Protocol: as §1, §2, §7

Kochia scoparia (KCHSC) [27] = experiment: C. Herbicidal pre-emergence efficacy, KCHSC; conditions: application rate 320 g/ha
From the text: as §4, §5

Row | Compound | Post-emergence efficacy against TRZAS in % ([1]; application rate 80 g/ha) [%] | Pre-emergence efficacy against VIOTR in % (Viola tricolor (VIOTR) [2]; application rate 80 g/ha) [%] | Pre-emergence efficacy against VIOTR in % (Viola tricolor (VIOTR) [2]; application rate 320 g/ha) [%] | Pre-emergence efficacy against ALOMY [3] [%] | Post-emergence efficacy against VERPE in % (Veronica persica (VERPE) [4]; application rate 80 g/ha) [%] | Post-emergence efficacy against VERPE in % (Veronica persica (VERPE) [4]; application rate 320 g/ha) [%] | Post-emergence efficacy against VIOTR in % (Viola tricolor (VIOTR) [5]; application rate 80 g/ha) [%] | Post-emergence efficacy against VIOTR in % (Viola tricolor (VIOTR) [5]; application rate 320 g/ha) [%] | Pre-emergence efficacy against VERPE (Veronica persica (VERPE) [7]; 320 g/ha) [%] | Pre-emergence efficacy against ABUTH ([8]; 80 g/ha) [%] | Pre-emergence efficacy against ABUTH ([8]; 320 g/ha) [%] | Post-emergence efficacy against ZEAMX in % (Zea mays (ZEAMX) [10]) [%] | Post-emergence efficacy against AMARE in % ([11]; application rate 80 g/ha) [%] | Post-emergence efficacy against AMARE in % ([11]; application rate 320 g/ha) [%] | Post-emergence efficacy against ECHCG in % ([12]; application rate 320 g/ha) [%] | Pre-emergence efficacy against POLCO ([14]; 320 g/ha) [%] | Post-emergence efficacy against SETVI in % (Setaria viridis (SETVI) [15]) [%] | Post-emergence efficacy against POLCO in % [16] [%] | Pre-emergence efficacy against LOLRI (Lolium rigidum (LOLRI) [17]) [%] | Pre-emergence efficacy against ECHCG ([18]; 320 g/ha) [%] | further results
1 | Cc1cccc(Oc2ncc(Cl)cn2)c1OS(=O)(=O)CCCCl [Example I-11] | 20 | 100 | 100 | 90 | 100 | 100 | 90 | 100 | 100 | 90 | 90 | 20 | 90 | 100 | 90 | 80 | 100 | 100 | 80 | 100 | Pre-emergence efficacy against AVEFA (Avena fatua (AVEFA)): 90%; Pre-emergence efficacy against ORYSA in % (Oryza sativa (ORYSA)): 20%; Pre-emergence efficacy against MATIN [6]: 80%; Pre-emergence efficacy against VERPE (Veronica persica (VERPE) [7]; 80 g/ha): 100%; Post-emergence efficacy against LOLRI in % (Lolium rigidum (LOLRI) [9]): 90%; Post-emergence efficacy against ECHCG in % ([12]; application rate 80 g/ha): 90%; Post-emergence efficacy against ALOMY in % [13]: 90%; Pre-emergence efficacy against POLCO ([14]; 80 g/ha): 80%; Pre-emergence efficacy against ECHCG ([18]; 80 g/ha): 90%; Pre-emergence efficacy against GLXMA in % (Glycine max (GLXMA)): 20%; Post-emergence efficacy against ABUTH in % ([19]; application rate 80 g/ha): 80%; Post-emergence efficacy against ABUTH in % ([19]; application rate 320 g/ha): 90%; Pre-emergence efficacy against AMARE ([20]; 80 g/ha): 100%; Pre-emergence efficacy against AMARE ([20]; 320 g/ha): 100%; Pre-emergence efficacy against SETVI (Setaria viridis (SETVI) [21]; 80 g/ha): 90%; Pre-emergence efficacy against SETVI (Setaria viridis (SETVI) [21]; 320 g/ha): 100%
2 | Cc1cccc(Oc2ncc(Cl)cn2)c1OS(=O)(=O)CCC(F)=C(F)F [Example I-71] | 0 | 100 | 100 | 80 | 80 | 100 | 90 | 100 | 90 | 80 | 100 | 0 | 90 | 100 | 90 | 100 | 100 | 100 | 80 | 100 | Post-emergence efficacy against TRZAS in % ([1]; application rate 320 g/ha): 0%; Post-emergence efficacy against PHBPU in % ([22]; application rate 80 g/ha): 80%; Post-emergence efficacy against PHBPU in % ([22]; application rate 320 g/ha): 90%; Pre-emergence efficacy against DIGSA [23]: 100%; Pre-emergence efficacy against ZEAMX in % (Zea mays (ZEAMX) [24]): 0%; Pre-emergence efficacy against TRZAS in % [25]: 0%; Post-emergence efficacy against KCHSC in % (Kochia scoparia (KCHSC) [26]; application rate 80 g/ha): 100%; Post-emergence efficacy against KCHSC in % (Kochia scoparia (KCHSC) [26]; application rate 320 g/ha): 100%; Pre-emergence efficacy against KCHSC in % (Kochia scoparia (KCHSC) [27]): 100%; Pre-emergence efficacy against GLXMA in % (Glycine max (GLXMA)): 10%; Post-emergence efficacy against ABUTH in % ([19]; application rate 320 g/ha): 100%; Pre-emergence efficacy against AMARE ([20]; 80 g/ha): 100%; Pre-emergence efficacy against AMARE ([20]; 320 g/ha): 100%; Pre-emergence efficacy against SETVI (Setaria viridis (SETVI) [21]; 320 g/ha): 100%
